Data from article PMC6205183 (Oncotarget, 2018).
“Also recorded” adds a separate entry of the source. One block for each molecule: values may come before it.

Legend:
K562-R cells = assay: Viability assay (Annexin V/7AAD), K562-R; assay type: cell-based, human; conditions: for viability on co-treatment with ponatinib / IC50: K562-R; for viability on co-treatment with ponatinib: compared to control line; for IC50: read-out: TKI viability assay IC50
Experimental: (§1) Cells were removed from drug-containing culture medium, washed and re-cultured in fresh media (with testing drug) for 72 hours. Cells then were stained with 7-Amino-actinomycin D (7AAD) and Annexin V-PE. Flow cytometry (BD LSRFortessaTM X-20 with high-throughput platform) was performed to determine cell viability: cells stained positive for Annexin V-PE and 7AAD were considered to be apoptotic or dead respectively. The data were analysed using FCS Express software (DeNovo Software, Los Angeles, California, USA).

K562 DOX-R cells = assay: Viability assay (Annexin V/7AAD), K562 DOX-R; assay type: cell-based, human; conditions: for viability on co-treatment with ponatinib / IC50: K562 DOX-R; for viability on co-treatment with ponatinib: compared to control line; for IC50: read-out: TKI viability assay IC50
Experimental: as §1

Axl [1] = conditions: no reference given; cited from earlier work
Axl [2] = tested on: Axl; set-up: method as in PMID 20080645, PMID 16230391, PMID 20603615, PMID 20145120; conditions: cited from earlier work
K562 DOX 55D-R cells = assay: cells; conditions: Homo sapiens, K562, read-out: TKI viability assay IC50
Experimental: as §1

K562 T315I-R cells = assay: cells; conditions: Homo sapiens, K562, read-out: TKI viability assay IC50
Experimental: as §1

K562 cells = assay: Viability assay (Annexin V/7AAD), K562 control; assay type: cell-based, human; conditions: 200 nM ponatinib, three days
Experimental: (§2) Flow cytometry (BD LSRFortessaTM X-20 with high-throughput platform) was performed to determine cell viability: cells stained positive for Annexin V-PE and 7AAD were considered to be apoptotic or dead respectively. […]

K562 DOX cells = assay: Viability assay (Annexin V/7AAD), K562 DOX control; assay type: cell-based, human; conditions: 200 nM ponatinib, three days
Experimental: as §2

K562-R-AXL KD cells = assay: Viability assay, AXL knock-down K562-R; assay type: cell-based, human; conditions: 10 nM ponatinib, 72 hours, n=3
Experimental: (§3) Stable AXL knock-down K562-R-AXL KD, and K562 DOX-R-AXL KD cell lines were generated, as well as the scramble control lines K562-R-scramble CTL, and K562 DOX-R-scramble CTL.
as §1
(§4) The GFP level and Axl expression level were measured after fluorescence-activated cell sorting (FACS) and before each experiment to ensure purity.

[3] = tested on: K562-R-scramble CTL cells; assay: Viability assay, scramble shRNA K562-R; assay type: cell-based, human; conditions: K562-R scrambled shRNA control, 10 nM ponatinib, 72 hours, n=3
Experimental: as §3, §1, §4

K562 DOX-R-AXL KD cells = assay: Viability assay, AXL knock-down K562 DOX-R; assay type: cell-based, human; conditions: 10 nM ponatinib, 72 hours, n=3
Experimental: as §3, §1, §4

[4] = tested on: K562 DOX-R-scramble CTL cells; assay: Viability assay, scramble shRNA K562 DOX-R; assay type: cell-based, human; conditions: K562 DOX-R scrambled shRNA control, 10 nM ponatinib, 72 hours, n=3
Experimental: as §3, §1, §4

[5] = 45 mg once daily; cited from earlier work

Compound: CCOc1ccn(-c2ccc(F)cc2)c(=O)c1C(=O)Nc1ccc(Oc2ccnc(N)c2Cl)c(F)c1 [BMS-777607]
viability on co-treatment with ponatinib (K562-R cells; 12.5 μM BMS777607 + 200 nM ponatinib, n=3, p=0.03): significantly reduced; also recorded: induced cell death significantly | viability on co-treatment with ponatinib (K562 DOX-R cells; 12.5 μM BMS777607 + 200 nM ponatinib, n=4, p<0.01): significantly reduced; also recorded: induced cell death significantly | potency against Axl relative to MET (Axl [1]): 3 times

Compound: Nc1nc(Nc2ccc3c(c2)CCC(N2CCCC2)CC3)nn1-c1cc2c(nn1)-c1ccccc1CCC2 (stereo not drawn) [R428]
viability on co-treatment with ponatinib (K562-R cells; 1 μM R428 + 200 nM ponatinib, n=3, p=0.02): significantly reduced; also recorded: induced cell death significantly | viability on co-treatment with ponatinib (K562 DOX-R cells; 1 μM R428 + 200 nM ponatinib, n=4, p=0.02): significantly reduced; also recorded: induced cell death significantly | specificity in targeting Axl over the other TAM family members (Mer and Tyro3) (Axl [2]): 50 to 100 fold

IC50 (K562 DOX 55D-R cells): > 200 nM | IC50 (K562 T315I-R cells): > 200 nM | IC50 (K562-R cells; Homo sapiens, K-562R): > 200 nM | IC50 (K562 DOX-R cells; Homo sapiens): > 200 nM
Compound: Cc1nc(Nc2ncc(C(=O)Nc3c(C)cccc3Cl)s2)cc(N2CCN(CCO)CC2)n1 [dasatinib]

IC50 (K562 DOX 55D-R cells): > 1000 nM | IC50 (K562 T315I-R cells): > 1000 nM | IC50 (K562-R cells; Homo sapiens, K-562R): > 1000 nM | IC50 (K562 DOX-R cells; Homo sapiens): > 1000 nM
Compound: Cc1cn(-c2cc(NC(=O)c3ccc(C)c(Nc4nccc(-c5cccnc5)n4)c3)cc(C(F)(F)F)c2)cn1 [nilotinib]

Compound: Cc1ccc(C(=O)Nc2ccc(CN3CCN(C)CC3)c(C(F)(F)F)c2)cc1C#Cc1cnc2cccnn12 [ponatinib, 3-[2-(imidazo[1,2-b]pyridazin-3-yl)ethynyl]-4-methyl-N-{4-[(4-methylpiperazin-1-yl)methyl]-3-(trifluoromethyl)phenyl}benzamide]
viability at 0.2 µM (K562-R cells; Homo sapiens, K-562R, 72 h): > 75% | viability at 0.2 µM (K562 DOX-R cells; Homo sapiens, K562, 72 h): > 75% | sensitivity to ponatinib (viability) (K562 cells): demonstrated sensitivity | sensitivity to ponatinib (viability) (K562 DOX cells): demonstrated sensitivity | reduction in viability (K562-R-AXL KD cells): 68% | reduction in viability [3]: 22% | reduction in viability (K562 DOX-R-AXL KD cells): 53% | reduction in viability [4]: 16% | medium human peak plasma level [5]: 145 nM | medium human trough plasma level [5]: 64 nM
